The target in assay [1] is T1, canine cardiac cyclic nucleotide phosphodiesterase (PDE) fraction III (Canis lupus familiaris, UniProt A0A8I3NYE0).
T1 construct: The fraction III isoenzyme was pooled and dialyzed; from tissue; host or cells: canine heart, soluble supernatant, DEAE cellulose fraction III (800 mM sodium acetate eluate)
T1 sequence (A0A8I3NYE0 1-1135): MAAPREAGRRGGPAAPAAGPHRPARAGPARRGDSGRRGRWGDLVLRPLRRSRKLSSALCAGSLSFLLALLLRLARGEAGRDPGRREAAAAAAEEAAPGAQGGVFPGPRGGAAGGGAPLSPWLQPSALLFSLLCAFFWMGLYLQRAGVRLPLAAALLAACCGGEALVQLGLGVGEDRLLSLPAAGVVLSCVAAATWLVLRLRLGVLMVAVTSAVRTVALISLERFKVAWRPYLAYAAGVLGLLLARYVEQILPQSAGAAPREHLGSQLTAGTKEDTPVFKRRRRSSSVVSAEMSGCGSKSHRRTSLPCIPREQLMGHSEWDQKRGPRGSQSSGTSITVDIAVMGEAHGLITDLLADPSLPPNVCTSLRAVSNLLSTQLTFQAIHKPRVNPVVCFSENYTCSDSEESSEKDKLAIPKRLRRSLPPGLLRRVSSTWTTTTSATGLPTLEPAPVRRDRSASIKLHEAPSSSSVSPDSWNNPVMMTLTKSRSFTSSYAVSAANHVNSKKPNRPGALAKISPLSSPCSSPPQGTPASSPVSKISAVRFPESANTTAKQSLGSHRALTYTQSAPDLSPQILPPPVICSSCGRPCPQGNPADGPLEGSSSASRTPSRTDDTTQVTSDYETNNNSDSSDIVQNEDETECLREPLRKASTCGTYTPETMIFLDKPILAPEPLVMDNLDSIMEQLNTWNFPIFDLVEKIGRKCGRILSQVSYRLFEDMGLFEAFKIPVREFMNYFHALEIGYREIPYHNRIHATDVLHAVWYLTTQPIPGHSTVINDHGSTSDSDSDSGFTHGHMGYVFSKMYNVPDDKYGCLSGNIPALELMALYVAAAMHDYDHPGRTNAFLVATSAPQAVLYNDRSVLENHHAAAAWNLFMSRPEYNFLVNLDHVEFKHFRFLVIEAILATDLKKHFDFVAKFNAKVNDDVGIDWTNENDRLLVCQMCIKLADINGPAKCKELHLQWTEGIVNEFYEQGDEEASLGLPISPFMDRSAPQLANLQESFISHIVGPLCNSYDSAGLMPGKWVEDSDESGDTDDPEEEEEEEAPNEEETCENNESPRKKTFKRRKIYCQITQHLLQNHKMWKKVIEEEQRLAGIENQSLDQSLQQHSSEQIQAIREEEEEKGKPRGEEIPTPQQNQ
The assay is described as follows: Cyclic AMP phosphodiesterase assay with fraction III isoenzyme, comparative testing. It is filed as biochemical.

In assay [2] the test system is human platelet aggregation. Put plainly: Platelet aggregation in vitro in platelet rich plasma. It is filed as cell-based. The following applies: for IC50: human PRP. The procedure:
The racemate and enantiomeric Bemoradan were tested for their effects in vitro on human platelet aggregation. Platelet rich plasma (PRP) was prepared from human donors who were free of aspirin for the preceding week. Venous blood was collected in sodium citrate vacutainer tubes and PRP was obtained by centrifuging the blood at l000 rpm for 5 min. Compounds were dissolved in methanol and added to 480 µl of PRP in a Chrono-log dual channel aggregometer l min prior to aggregant. Serotonin at 5 µM or ADP at 2 µM were the aggregating agents.

Setting [3] is: Table I summary, canine cardiac PDE fraction III, read-out: PDE III inhibition (IC50).
Setting [4] is: canine heart fraction III, 0.1 µM cyclic AMP, read-out: PDE III IC50.
[5] abbreviates: ADP at 2 µM, read-out: Antiaggregatory IC50 (µM) vs. ADP.
Where [6] appears, read: Serotonin at 5 µM, read-out: Antiaggregatory IC50 (µM) vs. 5-HT.
Where [7] appears, read: Table I summary, ADP at 2 µM as aggregant, read-out: Platelet aggregation (IC50) vs. ADP.
Setting [8] is: Table I summary, serotonin at 5 µM as aggregant, read-out: Platelet aggregation (IC50) vs. 5-HT (serotonin).

The results in this text go back to patent EP0509845A1, “(+) and (-) enantiomers of 5-aliphatic-6-(benzoxazinyl- or benzothiazinyl)-2,3,4,5-tetrahydropyridazin-3-ones” (ORTHO PHARMACEUTICAL CORPORATION, priority 1991, dated 1992).

Read-outs that look alike come from different tables or passages of the source.

In general, IC50 refers to the concentration at which inhibition is half-maximal.

In the case of `CC1CC(=O)NN=C1c1ccc2c(c1)OCC(=O)N2` (single isomer, unassigned; isomer 6) [(+) isomer, 6-(3,4-dihydro-3-oxo-l,4(2H)-benzoxazin-7-yl)-2,3,4,5-tetrahydro-5-methyl-pyridazin-3-one], the IC50 was determined as 8000 nM in assay [1] (setting [3]); 8000 nM in assay [1] (setting [4]); 3.8 µM in assay [2] (setting [5]); 8 µM in assay [2] (setting [6]); 3.8 µM in assay [2] (setting [7]); 8 µM in assay [2] (setting [8]).

As to `CC1CC(=O)NN=C1c1ccc2c(c1)OCC(=O)N2` (single isomer, unassigned; isomer 6) [(-) isomer, 6-(3,4-dihydro-3-oxo-l,4(2H)-benzoxazin-7-yl)-2,3,4,5-tetrahydro-5-methyl-pyridazin-3-one], in assay [1] ((-) isomer versus (+) isomer), the “Potency Difference (-vs+), PDE III inhibition (IC50)” value was 44 x. In addition, in assay [1] ((-) isomer versus (+) isomer), the “times more potent than the (+) isomer, inhibition of PDE III” value is recorded as around 44 times. Further, the “times more potent than the racemate, inhibition of PDE III” value in assay [1] ((-) isomer versus racemate) is recorded as “approximately 4 times”. The concentration for half-maximal inhibition (IC50) in assay [1] (setting [3]) was found to be 180 nM; in assay [1] (setting [4]), 180 nM; in assay [2] (setting [5]), 0.32 µM; in assay [2] (setting [6]), 0.5 µM; in assay [2] (setting [7]), 0.32 µM; in assay [2] (setting [8]), 0.5 µM. Moreover, the “Potency Difference (-vs+), Platelet aggregation (IC50) vs. 5-HT (serotonin)” value in assay [2] ((-) isomer versus (+) isomer) is 16x. In assay [2] ((-) isomer versus (+) isomer), the “Potency Difference (-vs+), Platelet aggregation (IC50) vs. ADP” value was 12x.
